Laboratory results taken from patent US7408065B2, “P2X7 receptor antagonists and their use” (AstraZeneca AB, priority 2003, dated 2008).
Where a name gives a salt, the structure may show the parent alone.

Compound | melting point
O=C(CC1CCCCC1)Nc1c(Cl)ccc2nc(N3C[C@@H]4C[C@H]3CN4)ccc12 (as salt: acetate) [Example 13, N-[6-Chloro-2-[(1S,4S)-2,5-diazabicyclo[2.2.1]hept-2-yl]-5-quinolinyl]-cyclohexaneacetamide, Acetate] | 120 °C (dec.)
Cc1ccc2nc(N3CC[C@H](N)C3)ccc2c1C(=O)NCC1CCCCC1 (as salt: acetate) [Example 58, 2-[(3S)-3-Amino-1-pyrrolidinyl]-N-(cyclohexylmethyl)-6-methyl-5-quinolinecarboxamide, Acetate] | 154 to 155 °C
O=C(O)CN1CCN(c2ccc3c(C(=O)NCC4CCCCC4)c(Cl)ccc3n2)CC1 (as salt: acetate) [Example 73, 4-[6-Chloro-5-[[(cyclohexylmethyl)amino]carbonyl]-2-quinolinyl]-1-piperazineacetic acid, Acetate] | 185 to 190 °C
O=C(CC1CCCCC1)Nc1c(Cl)ccc2nc(CC3CCNCC3)ccc12 (as salt: hydrochloride) | 170 to 175 °C
CN1CCN(c2ccc3c(NC(=O)CC4CCCCC4)c(Cl)ccc3n2)CC1 (as salt: hydrochloride) | 270 °C (dec.)
CCNCCCc1ccc2c(NC(=O)CC3CCCCC3)c(Cl)ccc2n1 (as salt: hydrochloride) | 152 to 155 °C
O=C(CC1CCCCC1)Nc1c(Cl)ccc2nc(N3CCNCC3)ccc12 (as salt: hydrochloride) | > 250 °C
CCCCNCCCc1ccc2c(NC(=O)CC3CCCCC3)c(Cl)ccc2n1 (as salt: hydrochloride) | 219 to 221 °C
CNCCCN(C)c1ccc2c(NC(=O)C3(C4CCCCC4)CC3)c(Cl)ccc2n1 (as salt: hydrochloride) | 215 to 218 °C
Cc1ccc2c(C(=O)NCC3CCCCC3)c(Cl)ccc2n1 (as salt: hydrochloride) | 210 to 213 °C
O=C(NCC1CCCCC1)c1c(Cl)ccc2nc(N3CCNCC3)ccc12 (as salt: hydrochloride) | 305 to 306 °C
CNCCCN(C)c1ccc2c(NC(=O)CC3CCC(C(F)(F)F)CC3)c(Cl)ccc2n1 (stereo not drawn) (as salt: hydrochloride) | 250 °C (dec.)
CNCCCN(C)c1ccc2c(NC(=O)CC3CCCCC3)c(Cl)ccc2n1 (as salt: hydrochloride) [Example 3, N-[6-Chloro-2-[methyl[3-(methylamino)propyl]amino]-5-quinolinyl]-cyclohexaneacetamide, Dihydrochloride] | 231 to 233 °C
O=C(CC1CCCCC1)Nc1c(Cl)ccc2nc(N[C@@H]3CCNC3)ccc12 (as salt: hydrochloride) [Example 14, N-[6-Chloro-2-[(3R)-3-pyrrlidinylamino]-5-quinolinyl]-cyclohexaneacetamide, Dihydrochloride] | 193 to 198 °C
CCNCCCc1ccc2c(NC(=O)CC3CCCCC3)c(C)ccc2n1 (as salt: hydrochloride) [Example 15, N-[2-[3-(Ethylamino)propyl]-6-methyl-5-quinolinyl]-cyclohexaneacetamide, Dihydrochloride] | 231 to 234 °C
O=C(CC1CCCCC1)Nc1c(Cl)ccc2nc(NCCNCCO)ccc12 (as salt: hydrochloride) [Example 17, N-[6-Chloro-2-[[2-[(2-hydroxyethyl)amino]ethyl]amino]-5-quinolinyl]-cyclohexaneacetamide, Dihydrochloride] | 238 to 240 °C
O=C(NCC1CCCCC1)c1c(Cl)ccc2nc(N3CC[C@H](NCCO)C3)ccc12 (as salt: hydrochloride) [Example 50, 6-Chloro-N-(cyclohexylmethyl)-2-[(3S)-3-[(2-hydroxyethyl)amino]-1-pyrrolidinyl]-5-quinolinecarboxamide, Hydrochloride] | 211 to 220 °C
O=C(O)CN1CCN(c2ccc3c(NC(=O)CC4CCCCC4)c(Cl)ccc3n2)CC1 (as salt: salt) | 320 to 326 °C
O=C(NCC1CCCCC1)c1c(Cl)ccc2nc(N3CCC(C(=O)O)CC3)ccc12 (as salt: sodium) [Example 74, 1-[6-Chloro-5-[[(cyclohexylmethyl)amino]carbonyl]-2-quinolinyl]-4-piperidinecarboxylic Acid, Sodium Salt] | 320 to 324 °C
O=C(CC1CCCCC1)Nc1c(Cl)ccc2nc(CCCc3nnn[nH]3)ccc12 (as salt: trifluoroacetate) | 140 to 145 °C
O=C(NCC1CCCCC1)c1c(Cl)ccc2nc(N3CCC[C@H]3C(=O)O)ccc12 (as salt: trifluoroacetate) | 168 to 170 °C
O=C(O)CC1CCN(c2ccc3c(C(=O)NCC4CCCCC4)c(Cl)ccc3n2)CC1 (as salt: trifluoroacetate) | 79 to 83 °C
O=C(CC1CCCCC1)Nc1c(Cl)ccc2nc(N3CCC[C@@H]3C(=O)O)ccc12 (as salt: trifluoroacetate) [Example 65, 1-[6-Chloro-5-[(cyclohexylacetyl)amino]-2-quinolinyl]-D-proline, Trifluoroacetate] | 170 to 173 °C

Compound | melting point
O=C(CC1CCCCC1)Nc1c(Cl)ccc2nc(NC[C@@H](O)CO)ccc12 [Example 6, N-[6-Chloro-2-[[(2R)-2,3-dihydroxypropyl]amino]-5-quinolinyl]-cyclohexaneacetamide] | 155 to 159 °C
O=C(O)CCCNc1ccc2c(NC(=O)CC3CCCCC3)c(Cl)ccc2n1 [Example 7, 4-[[6-Chlor-5-[(cyclohexylacetyl)amino]-2-quinolinyl]amino]-butanoic Acid] | 248 to 250 °C
O=C(CC1CCC(C(F)(F)F)CC1)Nc1c(Cl)ccc2nc(N3CCNCC3)ccc12 (stereo not drawn) [Example 9, N-[6-Chloro-2-(1-piperazinyl)-5-quinolinyl]-4-(trifluoromethyl)-cyclohexaneacetamide] | 186 to 190 °C
O=C(CC1CCCCC1)Nc1c(Cl)ccc2nc(N3CCCNCC3)ccc12 [Example 10, N-[6-Chlor-2-(hexahydro-1H-1,4-diazepin-1-yl)-5-quinolinyl]-cyclohexaneacetamide] | 186 to 188 °C
C[C@@H]1CN(c2ccc3c(NC(=O)CC4CCCCC4)c(Cl)ccc3n2)C[C@H](C)N1 [Example 11] | 250 to 252 °C
O=C(CC1CCCCC1)Nc1cccc2ncccc12 [Example 18, N-5-Quinolinyl-cyclohexaneacetamide] | 183 to 184 °C
CC1(CC(=O)Nc2cccc3ncccc23)CCCCC1 [Example 19, 1-Methyl-N-5-quinolinyl-cyclohexaneacetamide] | 133 to 135 °C
O=C(CCC1CCCC1)Nc1cccc2ncccc12 [Example 21, N-5-Quinolinyl-cyclopentanepropanamide] | 135 to 138 °C
O=C(CC1CCCCC1)Nc1c(Cl)ccc2nc(CCCNCCCO)ccc12 [Example 22, N-[6-Chloro-2-[3-[(3-hydroxypropyl)amino]propyl]-5-quinolinyl]-cyclohexaneacetamide] | 159 to 163 °C
NCCCc1ccc2c(NC(=O)CC3CCCCC3)c(Cl)ccc2n1 [Example 23, N-[2-(3-Aminopropyl)-6-chloro-5-quinolinyl]-cyclohexaneacetamide] | 121 to 130 °C
O=C(Nc1c(Cl)ccc2nc(N3CCNCC3)ccc12)C1(C2CCCCC2)CC1 [Example 27, N-[6-Chloro-2-(1-piperazinyl)-5-quinolinyl]-1-cyclohexyl-cyclopropanecarboxamide] | 219 °C
O=C(CC1CCCCC1)Nc1c(Cl)ccc2nc(N3CC[C@H](O)C3)ccc12 [Example 29, N-[6-Chloro-2-[(3S)-3-hydroxy-1-pyrrolidinyl]-5-quinolinyl]-cyclohexaneacetamide] | 219 to 221 °C
N[C@@H]1CCN(c2ccc3c(NC(=O)CC4CCCCC4)c(Cl)ccc3n2)C1 [Example 30, N-[2-[(3R)-3-Amino-1-pyrrolidinyl]-6-chloro-5-quinolinyl]-cyclohexaneacetamide] | 201 to 206 °C
N[C@H]1CCN(c2ccc3c(NC(=O)CC4CCCCC4)c(Cl)ccc3n2)C1 [Example 31, N-[2-[(3S)-3-Amino-1-pyrrolidinyl]-6-chloro-5-quinolinyl]-cyclohexaneacetamide] | 219 to 226 °C
NC1CCN(c2ccc3c(NC(=O)CC4CCCCC4)c(Cl)ccc3n2)CC1 [Example 32, N-[2-(4-Amino-1-piperidinyl)-6-chloro-5-quinolinyl]-cyclohexaneacetamide] | 333 to 334 °C
O=C(CC1CCCCC1)Nc1c(Cl)ccc2nc(N3CC[C@@H](NCCO)C3)ccc12 [Example 34, N-[6-Chloro-2-[(3R)-3-[(2-hydroxyethyl)amino]-1-pyrrolidinyl]-5-quinolinyl]-cyclohexaneacetamide] | 197 to 199 °C
CN[C@H]1CCN(c2ccc3c(NC(=O)CC4CCCCC4)c(Cl)ccc3n2)C1 [Example 35, N-[6-Chloro-2-[(3S)-3-(methylamino)-1-pyrrolidinyl]-5-quinolinyl]-cyclohexaneacetamide] | 164 to 165 °C
O=C(CC1CCCCC1)Nc1c(Cl)ccc2nc(N3CC[C@H](NCCO)C3)ccc12 [Example 36, N-[6-Chloro-2-[(3S)-3-[(2-hydroxyethyl)amino]-1-pyrrolidinyl]-5-quinolinyl]-cyclohexaneacetamide] | 194 to 196 °C
Cc1ccc2nc(N3CC[C@H](N)C3)ccc2c1NC(=O)CC1CCCCC1 [Example 38, N-[2-[(3S)-3-Amino-1-pyrrolidinyl]-6-methyl-5-quinolinyl]-cyclohexaneacetamide] | 223 to 224 °C
O=C(O)CNc1ccc2c(NC(=O)CC3CCCCC3)c(Cl)ccc2n1 [Example 40, N-[6-Chloro-5-[(cyclohexylacetyl)amino]-2-quinolinyl]-glycine] | 222 to 225 °C (dec.)
O=C(O)CCNc1ccc2c(NC(=O)CC3CCCCC3)c(Cl)ccc2n1 [Example 41, N-[6-Chloro-5-[(cyclohexylacetyl)amino]-2-quinolinyl]-β-alanine] | 222 to 224 °C (dec.)
O=C(NCC1CCCCC1)c1c(Cl)ccc2nc(N3CC(O)C3)ccc12 [Example 53, 6-Chloro-N-(cyclohexylmethyl)-2-(3-hydroxy-1-azetidinyl)-5-quinolinecarboxamide] | 206 to 208 °C
